# From patent publication US20240287138A1, “CYCLIC PEPTIDES FOR INHIBITING TNF RECEPTOR 1 ACTIVITY” (Merck Sharp & Dohme LLC, priority 2023, published 2024)
# pIC50: −log10 of the molar value. Numbered stars: 1 amine (or outer) side, 2 acyl side, 3 side chain; on linkers, the order of the positions; unused ones are H or OH. Bridge positions count the residues as written; N and C are the ends. Square brackets hold non-standard residues; d marks the D form. Peptide text beside a SMILES is read from it. Trp(βS-Me,7-OMe) = COc1cccc2c([C@H](C)[C@H](N)C(=O)O)c[nH]c12; Phe(4-SO2NH2) = N[C@@H](Cc1ccc(S(N)(=O)=O)cc1)C(=O)O; Trp(7-CN) = N#Cc1cccc2c(C[C@H](N)C(=O)O)c[nH]c12; Trp(7-Cl) = N[C@@H](Cc1c[nH]c2c(Cl)cccc12)C(=O)O; Phe(4-CONH2) = NC(=O)c1ccc(C[C@H](N)C(=O)O)cc1; Phe(4-COOH) = N[C@@H](Cc1ccc(C(=O)O)cc1)C(=O)O; Trp(7-aza) = N[C@@H](Cc1c[nH]c2ncccc12)C(=O)O; Ala(thiazol-5-yl) = N[C@@H](Cc1cncs1)C(=O)O; Pip(5R-OH) = O=C(O)[C@@H]1CC[C@@H](O)CN1; X1 = O=C([C@@H]1CC[C@H](N[*:1])C1)[*:2]; Pro(4R-NH2) = N[C@H]1CN[C@H](C(=O)O)C1; Pip(4-aza) = O=C(O)[C@@H]1CNCCN1; 4Pal = N[C@@H](Cc1ccncc1)C(=O)O; NMeE = CN[C@@H](CCC(=O)O)C(=O)O; dNMeE = CN[C@H](CCC(=O)O)C(=O)O; hLeu = CC(C)CC[C@H](N)C(=O)O; αMeS = C[C@](N)(CO)C(=O)O; Nle = CCCC[C@H](N)C(=O)O; Sar = CNCC(=O)O
# Target: T1, TNFα-induced NF-κB signal transduction pathway (TNFR1 signaling) in THP-1 cells (Homo sapiens, UniProt P19438)
# T1 sequence (P19438 30-455): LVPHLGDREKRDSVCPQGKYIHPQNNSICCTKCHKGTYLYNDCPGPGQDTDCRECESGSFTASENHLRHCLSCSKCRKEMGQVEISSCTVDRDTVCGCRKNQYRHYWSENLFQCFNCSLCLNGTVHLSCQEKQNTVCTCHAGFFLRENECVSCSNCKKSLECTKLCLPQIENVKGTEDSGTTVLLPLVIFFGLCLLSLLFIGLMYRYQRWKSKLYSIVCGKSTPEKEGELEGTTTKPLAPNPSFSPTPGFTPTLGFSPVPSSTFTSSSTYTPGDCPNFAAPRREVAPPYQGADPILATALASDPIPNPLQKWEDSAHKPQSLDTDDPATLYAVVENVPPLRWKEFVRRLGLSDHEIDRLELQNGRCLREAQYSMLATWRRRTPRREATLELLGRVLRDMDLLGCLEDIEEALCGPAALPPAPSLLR
# Assay: THP-1 Lucia NF-κB reporter cell assay, inhibition of TNFα-induced NF-κB signaling
# Type: cell-based
# Settings: THP-1 NF-κB Lucia reporter cells, 10 ng/mL TNFα, 16-18 h, secreted luciferase; read-out: THP-1 IC50
# Method: C. Procedure for THP-1 Lucia NF-κB cells
# The inhibition of TNFα-induced NF-κB signal transduction pathways was evaluated in THP-1 cells. THP-1 cells harboring NF-κB-inducible Lucia™ reporter gene (InvivoGen, cat. #thp1-nfkb) designed for monitoring NF-κB signal transduction pathway was employed to assess the inhibitory effect macrocyclic peptides on TNFR1 signaling. The cells were cultured in media containing RPMI 1640, 2 mM L-glutamine, 25 mM HEPES, 10% heat-inactivated fetal bovine serum with appropriate selection antibiotics. Assays were performed in media that was devoid of selection antibiotics. For profiling, 125 nL of peptides in DMSO (10 mM) were dispensed into Falcon® 384-well Optilux white/clear flat bottom TC-treated microtest microplate (Corning, cat. #353963) using Echo® 555. […] A suspension of 1 million cells/mL was dispensed at 20 μL/well in a 384-well plate to a density of 20,000 cells/well and pre-incubated with peptides at 37° C. for 1 h. Subsequently, 5 μL of TNF containing media (recombinant human TNFα; R&D Systems USA, cat. #210-TA-005/CF) or TNF-free media (for controls) was added to the wells. The final concentration of TNFα in the assay in 10 ng/mL. After o.n. incubation at 37° C. (16-18 h), 5 μL of supernatant was aspirated and transferred to a 384-well microplate (PerkinElmer, cat. #6007680) for measurement of secreted luciferase activity with 25 μL of QUANTI-Luc™ luminescence assay reagent (InvivoGen, cat. #rep-qlc1) in each well. The luminescence was measured in EnVision® Multimode Plate Reader (PerkinElmer). Dose response curves were analyzed using a 4-parameter logistic model to calculate IC50 values, reported in Table 2, using TIBCO® Spotfire® software employing appropriate Minimum and Maximum controls.
row,Structure (SMILES),pIC50
1,"CCCC[C@@H]1NC(=O)CSC[C@@H](C(N)=O)NC(=O)[C@H]([C@@H](C)c2c[nH]c3c(OC)cccc23)NC(=O)CN(C)C(=O)[C@H](Cc2ccc(O)cc2)NC(=O)[C@H](Cc2ccc(C(=O)O)cc2)NC(=O)[C@](C)(CO)NC(=O)[C@H](Cc2c[nH]c3c(Cl)cccc23)NC(=O)[C@H](Cc2ccncc2)NC(=O)[C@H](CC(N)=O)NC(=O)[C@H](CCC(=O)O)N(C)C(=O)[C@H](Cc2c[nH]c3ncccc23)NC(=O)[C@@H]2C[C@@H](N)CN2C(=O)[C@H](Cc2ccncc2)NC1=O [SEQ ID NO. 125] ({CH2CO}-[Nle][4Pal][Pro(4R-NH2)][Trp(7-aza)][NMeE]N[4Pal][Trp(7-Cl)][αMeS][Phe(4-COOH)]Y[Sar][Trp(βS-Me,7-OMe)]C-NH2; thioether N-14)",8.39
2,"CCCC[C@@H]1NC(=O)[C@@H]2CC[C@@H](C2)NC(=O)[C@H]([C@@H](C)c2c[nH]c3c(OC)cccc23)NC(=O)CN(C)C(=O)[C@H](Cc2ccc(C(=O)O)cc2)NC(=O)[C@H](Cc2ccc(C(N)=O)cc2)NC(=O)[C@](C)(CO)NC(=O)[C@H](Cc2c[nH]c3c(C#N)cccc23)NC(=O)[C@H](Cc2ccc(S(N)(=O)=O)cc2)NC(=O)[C@H](CC(N)=O)NC(=O)[C@@H](CCC(=O)O)N(C)C(=O)[C@H](Cc2c[nH]c3ncccc23)NC(=O)[C@@H]2CC[C@@H](O)CN2C(=O)[C@H](Cc2ccncc2)NC1=O [SEQ ID NO. 133] (cyclo([4Pal][Pip(5R-OH)][Trp(7-aza)][dNMeE]N[Phe(4-SO2NH2)][Trp(7-CN)][αMeS][Phe(4-CONH2)][Phe(4-COOH)][Sar][Trp(βS-Me,7-OMe)][X1][Nle]))",8.85
3,"COc1cccc2c([C@H](C)[C@@H]3NC(=O)CN(C)C(=O)[C@H](Cc4ccc(O)cc4)NC(=O)[C@H](Cc4ccc(C(=O)O)cc4)NC(=O)[C@](C)(CO)NC(=O)[C@H](Cc4c[nH]c5c(Cl)cccc45)NC(=O)[C@H](Cc4ccncc4)NC(=O)[C@H](CC(N)=O)NC(=O)[C@H](CCC(=O)O)N(C)C(=O)[C@H](Cc4c[nH]c5ccccc45)NC(=O)[C@@H]4CNCCN4C(=O)[C@H](Cc4ccncc4)NC(=O)[C@H](CCC(C)C)NC(=O)[C@@H]4CC[C@@H](C4)NC3=O)c[nH]c12 [SEQ ID NO. 137] (cyclo([4Pal][Trp(7-Cl)][αMeS][Phe(4-COOH)]Y[Sar][Trp(βS-Me,7-OMe)][X1][hLeu][4Pal][Pip(4-aza)]W[NMeE]N))",8.89
4,"CCCC[C@@H]1NC(=O)[C@@H]2CC[C@@H](C2)NC(=O)[C@H]([C@@H](C)c2c[nH]c3c(OC)cccc23)NC(=O)CN(C)C(=O)[C@H](Cc2ccc(O)cc2)NC(=O)[C@H](Cc2ccc(C(=O)O)cc2)NC(=O)[C@](C)(CO)NC(=O)[C@H](Cc2c[nH]c3c(Cl)cccc23)NC(=O)[C@H](Cc2cncs2)NC(=O)[C@H](CC(N)=O)NC(=O)[C@H](CCC(=O)O)N(C)C(=O)[C@H](Cc2c[nH]c3ccccc23)NC(=O)[C@@H]2CNCCN2C(=O)[C@H](Cc2ccncc2)NC1=O [SEQ ID NO. 138] (cyclo([4Pal][Pip(4-aza)]W[NMeE]N[Ala(thiazol-5-yl)][Trp(7-Cl)][αMeS][Phe(4-COOH)]Y[Sar][Trp(βS-Me,7-OMe)][X1][Nle]))",8.70
